Data taken from ChEMBL document CHEMBL6115029, “Discovery of Daraxonrasib (RMC-6236), a Potent and Orally Bioavailable RAS(ON) Multi-selective, Noncovalent Tri-complex Inhibitor for the Treatment of Patients with Multiple RAS-Addicted Cancers” (J Med Chem, 2025).
pEC50, pIC50: −log10 of the molar value. Converted amounts (≈) assume the structure as drawn. The source made the active and inactive calls. The rule behind the calls is not given here.

Columns and labels:
[1] = Oral bioavailability in female BALB/c mouse blood at 10 mg/kg measured after 24 hrs by LC-MS/MS analysis; assay type: ADME, organism-based
[2] = Clearance in female BALB/c mouse blood at 1 mg/kg, iv measured after 24 hrs by LC-MS/MS analysis; assay type: ADME, organism-based
[3] = Inhibition of 6His-tagged KRAS G12C mutant(1 to 169 residues)/GST-tagged GMPPNP-bound BRAF RBD (155 to 229 reisudes)/Cyclophilin A (unknown origin) tri-complex protein-protein interaction incubated for 3 hrs by TR-FERT based disruption assay; design: species or system Homo sapiens
[4] = Volume of distribution at steady state in male Beagle dog at 1 mg/kg, iv measured after 24 hrs by LC-MS/MS analysis; assay type: ADME, organism-based, Canis lupus familiaris; conditions: in vivo, read-out: Vdss
[5] = Oral bioavailability in female BALB/c mouse plasma at 10 mg/kg measured after 24 hrs by LC-MS/MS analysis; assay type: ADME, organism-based
[6] = (§1) In vivo inhibition of MAPK signaling pathway in female BALB/c nude mouse xenografted with human MIA PaCa-2 cells harboring KRAS G12C/G12C mutant assessed as reduction in DUSP6 mRNA level in tumor at 25 mg/kg, po administered as single dose and measured after 8 hrs by qPCR analysis relative to control; assay type: functional
SK-MEL-30 = experiment: Inhibition of ERK1/2 phosphorylation in human SK-MEL-30 cells harboring […] mutant incubated for 4 hrs by AlphaLISA assay; assay type: cell-based
[7] = Ratio of drug concentration in mouse blood to plasma at 10 uM measured upto 120 mins by LC-MS/MS analysis; assay type: ADME, cell-free
[8] = Inhibition of 6His-tagged wildtype KRAS (1 to 169 residues)/GST-tagged GMPPNP-bound BRAF RBD (155 to 229 reisudes)/Cyclophilin A (unknown origin) tri-complex protein-protein interaction incubated for 3 hrs by TR-FERT based disruption assay; design: species or system Homo sapiens
[9] = Toxicity in female BALB/c nude mouse xenografted with human NCI-H1373 cells harboring KRAS G12C/KRAS G12C mutant assessed as effect on body weight at 25 mg/kg, po administered once daily for 28 days; assay type: organism-based; conditions: in vivo, 672 h, time 28 day
NCI-H1975 [10] = experiment: Cytotoxicity against human NCI-H1975 cells harboring wildtype KRAS cultured as 2D cells assessed as reduction in cell viability incubated for 120 hrs by CellTiter-Glo luminescence assay; assay type: functional, cell-based; conditions: NCI-H1975, 120 h
Hs 766 = experiment: Cytotoxicity against human Hs766T cells harboring KRAS Q61H mutant cultured as 2D cells assessed as inhibition of cell proliferation incubated for 120 hrs by CellTiter-Glo luminescence assay; assay type: functional, cell-based
[11] = Kinetic solubility of compound in PBS at pH 7.4 measured after 5 hrs by UV analysis; assay type: physicochemical; conditions: read-out: Kinetic_solubility
[12] = Toxicity in human PBL cells in absence of rat S9 fraction by micronucleus assay; assay type: cell-based
[13] = as §1, with “10” for “25”; assay type: functional
NCI-H1373 = experiment: Antitumor activity against human NCI-H1373 cells harboring KRAS G12C/KRAS G12C mutant xenografted in female BALB/c nude mouse assessed as tumor regression at 25 mg/kg, po administered once daily for 28 days; assay type: functional, organism-based; conditions: time 28.0 day
CAPAN-1 = experiment: Cytotoxicity against human CAPAN-1 cells harboring KRAS G12V mutant cultured as 2D cells assessed as reduction in cell viability incubated for 120 hrs by CellTiter-Glo luminescence assay; assay type: functional, cell-based; conditions: CAPAN-1, 120 h
PSN1 [14] = experiment: Inhibition of ERK1/2 phosphorylation in human PSN1 cells harboring KRAS G12R mutant incubated for 4 hrs by AlphaLISA assay; assay type: cell-based
HPAF-II = experiment: Antitumor activity against human HPAF-II cells harboring wildtype KRAS/KRAS G12D mutant xenografted in female BALB/c mouse model assessed as tumor regression at 25 mg/kg, po administered once daily for 28 days; assay type: functional, organism-based; conditions: time 28.0 day
NCI-H1975 [15] = experiment: Inhibition of ERK1/2 phosphorylation in human NCI-H1975 cells harboring wildtype KRAS incubated for 4 hrs by AlphaLISA assay; assay type: cell-based
[16] = Oral bioavailability in male Sprague-Dawley rat at 60 mg/kg measured after 24 hrs by LC-MS/MS analysis; assay type: ADME, organism-based; conditions: in vivo
[17] = Lipophilicity, logD of compound at pH 7.4 by Agilent 1290 II uPLC analysis; assay type: physicochemical; conditions: buffer
[18] = Apparent permeability across apical to basolateral side in human Caco-2 cells at 5 uM incubated for 2 hrs by LC-MS/MS analysis; assay type: ADME, cell-based
[19] = Inhibition of ERK1/2 phosphorylation in human NCI-H358 cells harboring KRAS G12C mutant incubated for 4 hrs by AlphaLISA assay; assay type: cell-based; conditions: NCI-H358, 4 h
Hs766T = experiment: Inhibition of ERK1/2 phosphorylation in human Hs766T cells harboring […] mutant incubated for 4 hrs by AlphaLISA assay; assay type: cell-based
[20] = Clearance in female BALB/c mouse plasma at 1 mg/kg, iv measured after 24 hrs by LC-MS/MS analysis; assay type: ADME, organism-based
[21] = Half-life in male cynomolgus monkey at 1 mg/kg, iv measured after 24 hrs by LC-MS/MS analysis; assay type: ADME, organism-based, Macaca fascicularis; conditions: in vivo
[22] = Clearance in male cynomolgus monkey at 1 mg/kg, iv measured after 24 hrs by LC-MS/MS analysis; assay type: ADME, organism-based, Macaca fascicularis; conditions: in vivo
PSN1 [23] = experiment: Cytotoxicity against human PSN1 cells harboring KRAS G12R mutant cultured as 2D cells assessed as inhibition of cell proliferation incubated for 120 hrs by CellTiter-Glo luminescence assay; assay type: functional, cell-based
NCI-H441 = experiment: Antitumor activity against human NCI-H441 cells harboring wildtype KRAS/KRAS G12V mutant xenografted in female BALB/c nude mouse assessed as tumor regression at 25 mg/kg, po administered once daily for 28 days; assay type: functional, organism-based; conditions: time 28.0 day
[24] = Inhibition of 6His-tagged KRAS G12D mutant(1 to 169 residues)/GST-tagged GMPPNP-bound BRAF RBD (155 to 229 reisudes)/Cyclophilin A (unknown origin) tri-complex protein-protein interaction incubated for 3 hrs by TR-FERT based disruption assay; design: species or system Homo sapiens
[25] = Tmax in female BALB/c mouse at 10 mg/kg, po measured after 24 hrs by LC-MS/MS analysis; assay type: ADME, organism-based; conditions: in vivo
[26] = Mutagenicity in Salmonella typhimurium by Ames test; assay type: toxicity; conditions: salmonella enterica subsp. enterica serovar typhimurium
[27] = Metabolic stability in mouse liver microsomes assessed as half-life at 2 uM measured upto 60 mins in presence of NADPH by LC-MS/MS analysis; assay type: ADME, Microsome
[28] = Oral bioavailability in male cynomolgus monkey at 10 mg/kg measured after 24 hrs by LC-MS/MS analysis; assay type: ADME, organism-based, Macaca fascicularis; conditions: in vivo
[29] = Volume of distribution at steady state in male Sprague-Dawley rat at 1 mg/kg, iv measured after 24 hrs by LC-MS/MS analysis; assay type: ADME, organism-based; conditions: in vivo, read-out: Vdss
[30] = Half-life in male Sprague-Dawley rat at 60 mg/kg, po measured after 24 hrs by LC-MS/MS analysis; assay type: ADME, organism-based; conditions: in vivo

**Q.** Which results are given for `CCn1c(-c2cc(N3CCN(C)CC3)cnc2[C@H](C)OC)c2c3cc(ccc31)-c1csc(n1)C[C@H](NC(=O)[C@H]1C[C@@H]1C)C(=O)N1CCC[C@H](N1)C(=O)OCC(C)(C)C2`?
**A.** bioavailability [1]: 33%; clearance [2]: 8.33 mL/min/kg; pIC50 [3]: 7.46; Vd [4]: 2.1 L/kg; bioavailability [5]: 52%; inhibition in vivo at 25 mg/kg [6]: 98%; inhibition (SK-MEL-30): Active; blood plasma ratio at 2 h, 10 µM [7]: 1.1; pIC50 [8]: 7.04; Activity [9]: Non-toxic; pEC50 (NCI-H1975 [10]): 8.85; Activity (Hs 766): Active; solubility kinetic at 5 h [11]: 71 µM (≈ 57.6 µg/mL); Activity [12]: Non-toxic; inhibition in vivo at 10 mg/kg [13]: 95%; Activity (NCI-H1373): Active; pEC50 (CAPAN-1): 8.89; inhibition (PSN1 [14]): Active; Activity (HPAF-II): Active; inhibition (NCI-H1975 [15]): Active; bioavailability [16]: 27%; logD [17]: 4.5; Papp A→B at 2 h, 5 µM [18]: 0.4 ×10⁻⁶ cm/s; pEC50 [19]: 8.80; inhibition (Hs766T): Active; clearance [20]: 40 mL/min/kg; half-life [21]: 6.2 h; clearance [22]: 8.33 mL/min/kg; Activity (PSN1 [23]): Active; Activity (NCI-H441): Active; pIC50 [24]: 6.64; Tmax [25]: 1.7 h; Activity [26]: Non-toxic; half-life at 2 µM [27]: 1.13 h; bioavailability [28]: 24%; Vd [29]: 1.9 L/kg; half-life [30]: 2.8 h
